Assay results taken from patent US20260335327A1, “IDH MUTATIONS AS BIOMARKERS FOR ZOTIRACICLIB THERAPY” (Cothera Bioscience, Inc., priority 2022, published 2026).

Assays:
Assay type in all cases: cell-based, Human
[1] = test system: mutant IDH1 cells (Hccc-9810); assay: Western blot of pH2AX (marker of DNA damage), Hccc-9810 cells; details: exogenous AG-120 with TG02, 48 h; WB; FIG. 6
Method: (§1) Cell Culture. Human Chondrosarcoma cell line HT-1080 was cultured in MEM (Gibco, USA) supplemented with 10% fetal bovine serum (FBS, Gemini, USA). Human cholangiocarcinoma cell lines RBE, Hccc-9810, and Hucct-1 were cultured in RPMI1640 (Hyclone, USA) supplemented with 10% FBS. Cells were incubated at 37 °C in 5% CO2.
(§2) Western blot. Hccc-9810 and Hucct-1 cells treated with TG02 or AG120 as indicated for 48 h (0.1% DMSO was added as control) were harvested and centrifuged at 500 g for 5 minutes to obtain cell pellets. Then the pellets were lysed in lysis buffer (Beyotime, China) which additionally included a protease inhibitor cocktail (Beyotime, China) and phosphatase inhibitor cocktail (Beyotime, China). Cells were incubated on ice for 30 minutes and then centrifuged at 4 °C, 12000 rpm for 10 minutes to obtain the supernatant as cell lysate. The concentrations of protein in cell lysate were determined by Micro BCA™ Protein Assay Kit (ThermoFisher, USA). 4×SDS-PAGE Sample Loading Buffer (SolarBio, China) was added into cell lysate contained 25 μg of total protein and, after boiling, the mixture was electrophoresed in polyacrylamide gel. After electrophoresis, proteins on the gel were transferred to PVDF membrane, and the membrane was cut at position close to the molecular weights of proteins whose expression was examined (pH2AX (CST, USA), GAPDH (ZSGB-BIO, China)).

[2] = test system: mutant IDH1 (HT-1080) cells; assay: Neutral comet assay (DNA damage), HT-1080 cells; details: for rescue of TG02-induced DNA damage: exogenous α-KG or AG-120 with TG02, 48 h
Method: as §1
Comet assay. The comet assay is common technique for measurement of DNA damage in individual cells. Under an electrophoretic field, damaged cellular DNA (containing fragments and strand breaks) is separated from intact DNA, yielding a classic “comet tail” shape under the microscope. DNA damage was assayed by OxiSelect™ Comet Assay Kit (CELL BIOLABS, INC.) according to the manufacturer's instructions. Briefly, comet agarose was pipetted onto the OxiSelect™ Comet Slide to form a base layer. Cells were combined with OxiSelect™ Comet agarose at 37 °C, then the agarose/cell mixture was pipetted onto the top of the base layer. Cells were treated with lysis buffer and alkaline solution. Electrophoresis was performed under neutral conditions. The slides were viewed by epifluorescence microscopy using a FITC filter.
Tail Moment=(100×Tail DNA Intensity/Cell DNA Intensity)×Tail Moment Length

Hucct1^R132H/+ cells = assay: Neutral comet assay (Tail moment), Hucct1^R132H/+ cells; details: 0.2 μM TG02, 48 h, compared with Hucct1 treated with TG02, FIG. 7A
Method: as §1
(§3) Comet assay. The comet assay is common technique for measurement of DNA damage in individual cells. Under an electrophoretic field, damaged cellular DNA (containing fragments and strand breaks) is separated from intact DNA, yielding a classic “comet tail” shape under the microscope. DNA damage was assayed by OxiSelect™ Comet Assay Kit (CELL BIOLABS, INC.) according to the manufacturer's instructions. Briefly, comet agarose was pipetted onto the OxiSelect™ Comet Slide to form a base layer. Cells were combined with OxiSelect™ Comet agarose at 37 °C, then the agarose/cell mixture was pipetted onto the top of the base layer. Cells were treated with lysis buffer and alkaline solution. Electrophoresis was performed under neutral conditions. […]
In FIG. 7A, IDH1-mutant Hucct1 cells (Hucct1^R132H/+) were generated by lentivirus expressing IDH1 R132H. […] Quantification of Tail moment in neutral comet assay is presented. ns: no significant differences; ***: P<0.001, ****: P<0.0001, compared with NC; #: P<0.05, compared with Hucct1 cells treated with TG02. […]

Hucct1R132H/+ cells = assay: Western blot of phosphorylated γH2AX (marker of DSBs), Hucct1^R132H/+ cells; details: 0.2 μM TG02, 16 h, FIG. 7B
Method: as §2, with “Hccc-9810 and Hucct-1 cells treated with TG02 or AG120 as indicated for 48 h (0.1% DMSO was added as control) were harvested and centrifuged at 500 g for 5 minutes to obtain cell pellets.” left out
In FIG. 7A, IDH1-mutant Hucct1 cells (Hucct1^R132H/+) were generated by lentivirus expressing IDH1 R132H. Hucct1, Hucct1^R132H/+ and HT-1080 cells were treated with 0.2 μM TG02 or 0.1% DMSO for 48 h. Cells were used to comet assays. Quantification of Tail moment in neutral comet assay is presented. ns: no significant differences; ***: P<0.001, ****: P<0.0001, compared with NC; #: P<0.05, compared with Hucct1 cells treated with TG02. […]

[3] = test system: Hucct-1 cells transfected with IDH1 R132H plasmid; assay: Apoptosis assay (FACS), Hucct-1 cells transfected with IDH1 R132H plasmid; details: 0.1 μM TG02, 72 h; Hucct-1 transfected with IDH1 R132H; FIG. 3A
Method: as §1
(§4) Apoptosis Assay. HT-1080, RBE, Hccc-9810, and Hucct-1 cells were treated with the indicated drugs. Apoptosis was detected by Annexin V/PI staining kit (Thermo Fisher) according to the manufacturer's instructions. Briefly, cells were plated at a density of 1× 10^5 cells/well in media with 10% FBS with desired concentrations of TG02. At 48/72-hour post-treatment the cells were harvested and tested for apoptosis by Annexin V and PI staining. Cell analysis was performed using a FACSCelesta (BD).
Transfection. The day before transfection, cells (~2×10^5/well) were seeded in a 6-well plate. The cells were cultured in a 37 °C in 5% CO2 incubator overnight. The old medium was removed and 2 ml of transfection medium was added. 50 μl opti-MEM was added to a tube, and then 2 μg plasmid DNA Mix solution was mixed by vortexing. 4 μl PEI solution was added to this tube, and the solution was mixed by gently pipetting up and down. The samples were incubated at room temperature for 15 min to allow the PEI/DNA complexes to form. […]

mutant IDH1 cancer cells = assay: Overall conclusion on DNA damage and cell-killing in mutant IDH1 versus homozygous wild-type IDH1 cancer cells; details: mutant IDH1 relative to homozygous wild-type IDH1 cancer cells
Method: as §4, §3
Western blot. […] The concentrations of protein in cell lysate were determined by Micro BCA™ Protein Assay Kit (ThermoFisher, USA). […]

HT-1080 = assay: Apoptosis assay (Annexin V/PI staining, FACS), HT-1080 cells; details: 0.2 μM TG02; IDH1-mutant chondrosarcoma HT-1080; compared with IDH1-WT (Hucct-1); FIGS. 2A-2B
Method: as §1, §4

RBE = assay: Apoptosis assay (Annexin V/PI staining, FACS), RBE cells; details: 0.2 μM TG02; IDH1-mutant cholangiocarcinoma RBE; compared with IDH1-WT (Hucct-1); FIGS. 2A-2B
Method: as §1, §4

Hccc-9810 = assay: Apoptosis assay (Annexin V/PI staining, FACS), Hccc-9810 cells
Method: as §1, §4

[4] = neutral comet assay, FIGS. 5A-5B

| Compound | rescue of TG02-induced DNA damage (pH2AX) [1] | rescue of TG02-induced DNA damage [2, 4] | sensitivity to DNA damage induced by TG02 (Tail moment) (Hucct1^R132H/+ cells) | sensitivity to DNA damage induced by TG02 (phosphorylated γH2AX) (Hucct1R132H/+ cells) | TG02 sensitivity (apoptosis) [3] | sensitivity to DNA damage induced by TG02 (Tail moment) ([2]; 0.2 μM TG02, 48 h, HT-1080, compared with Hucct1 treated with TG02, FIG. 7A) | TG02-induced DNA damage ([2]; 48 h, neutral comet assay, FIGS. 5A-5B) | selective DNA damage (mutant IDH1 cancer cells) | selective cell-killing (mutant IDH1 cancer cells) | sensitivity to TG02 (apoptosis) (HT-1080) | sensitivity to TG02 (apoptosis) (RBE) | sensitivity to TG02 (apoptosis) (Hccc-9810; 0.2 μM TG02, IDH1-mutant cholangiocarcinoma Hccc-9810 (printed Hcc-9810), compared with IDH1-WT (Hucct-1), FIGS. 2A-2B) | TG02-induced apoptosis (Hccc-9810; TG02 for 72 h, without exogenous α-KG, FIG. 4) | rescue of TG02-induced apoptosis (Hccc-9810; α-KG pretreatment 24 h, then TG02 for 72 h, FIG. 4) |
| --- | --- | --- | --- | --- | --- | --- | --- | --- | --- | --- | --- | --- | --- | --- |
| N#Cc1ccnc(N2C(=O)CC[C@H]2C(=O)N(c2cncc(F)c2)[C@H](C(=O)NC2CC(F)(F)C2)c2ccccc2Cl)c1 [AG-120, ivosidenib] | TG02-induced DNA damage was rescued only in mutant IDH1 cells (Hccc-9810) | can be rescued by addition of exogenous α-KG or AG-120 |  |  |  |  |  |  |  |  |  |  |  |  |
| CN1C/C=C/CCOc2cccc(c2)-c2ccnc(n2)Nc2cccc(c2)C1 [TG02, (16E)-14-methyl-20-oxa-5,7,14,27-tetraazatetracyclo[19.3.1.1^2,6. 1^8,12]heptacosa-1(25),2(27),3,5,8,10,12(26),16,21,23-decaene] |  |  | cells with IDH1 mutation are more sensitive to DNA damage induced by TG02 | cells with IDH1 mutation are more sensitive to DNA damage induced by TG02 | increased TG02 sensitivity can be conferred onto IDH1-WT (Hucct-1) cells by transfection of mutated IDH1 | cells with IDH1 mutation are more sensitive to DNA damage induced by TG02 | TG02-induced DNA damage in mutant IDH1 (HT-1080) cells | selectively induces DNA damage and cell-killing in mutant IDH1 cancer cells relative to homozygous wild-type IDH1 cancer cells | selectively induces DNA damage and cell-killing in mutant IDH1 cancer cells relative to homozygous wild-type IDH1 cancer cells | more sensitive to TG02 than IDH1-WT (Hucct-1) cells | more sensitive to TG02 than IDH1-WT (Hucct-1) cells | more sensitive to TG02 than IDH1-WT (Hucct-1) cells | TG02-induced apoptosis of mutant IDH1 (Hccc-9810) cells |  |
| O=C(O)CCC(=O)C(=O)O [α-KG, α-ketoglutarate] |  | can be rescued by addition of exogenous α-KG or AG-120 |  |  |  |  |  |  |  |  |  |  |  | can be rescued by addition of exogenous substrate α-ketoglutarate (α-KG) |
